Reference: publication PMC8011784, “Chronic peptide-based GIP receptor inhibition exhibits modest glucose metabolic changes in mice when administered either alone or combined with GLP-1 agonism” (PLoS ONE, 2021)

How the values were obtained:
Format in all cases: in vivo, mouse
DIO mice [1] = assay: Chronic GIPA-1 study: body weight and food intake in DIO mice; conditions: 28 days, HFD; liraglutide 0.2 mg/kg/day SC, GIPA-1 ~4.5 mg/kg/day osmotic minipump; n = 10; vs vehicle (combination: vs liraglutide)
Procedure: 23-week-old male C57BL/6JRj mice (n = 40), fed a HFD (SSNIFF® diet #12492[60% fat, 20% protein, 20% carbohydrate]) for 14 weeks, were distributed into 4 test groups and received daily either vehicle, liraglutide (0.2 mg/kg/day), GIPA-1 (~4.5 mg/kg/day) or liraglutide + GIPA-1 for 4 weeks while still maintained on HFD. GIPA-1 was delivered using minipumps in order to achieve sufficient GIPR antagonism based on the properties of this peptide (Fig 2A). Liraglutide was dissolved in phosphate-buffered saline (PBS) plus 0.1% bovine serum albumin (BSA) (vehicle 1) and GIPA-1 in DMSO/propylene glycol (50/50 volume per volume) (vehicle 2). 100 μL minipumps (Alzet) were filled with GIPA-1 (30 mg/mL) or vehicle 2 and kept in 0.9% saline at 37°C overnight. […] Fasted (4 hrs) blood glucose and insulin levels were measured on study day -3, 14 and 27. […] Blood glucose was measured before their daily dosing and at 0, 15, 30 60, 120, 180 min after glucose administration. Plasma insulin was measured at 0 and 15 min. Whole body weight and food intake were measured throughout the study period. […]
Fig 2 Effects of chronic GIPR antagonism on body weight, food intake, and fasting blood glucose and insulin. […] Statistical analysis was calculated using two-way ANOVA with Tukey’s post-hoc test and one-way ANOVA for AUC with Dunnett’s post-hoc test. *: p< 0.05, **: p < 0.01, ***: p < 0.001, ****: p<0.0001 compared to vehicle.

DIO mice [2] = assay: Chronic GIPA-2 study: OGTT in DIO mice; conditions: day 17; oral glucose 2 g/kg one hour after daily dose; liraglutide 0.2 mg/kg SC, GIPA-2 10 mg/kg SC; n = 10
Procedure: (§1) For studying the chronic effects of GIPA-2, male C57BL/6JRj mice (n = 40) were fed a HFD (SSNIFF® diet #12492) for 43 weeks. DIO mice were randomized (n = 10 per group) based on baseline blood glucose and body weight. Liraglutide was dissolved in PBS plus 0.1% BSA (Vehicle1) and GIPA-2 in PBS (vehicle 2). Mice received one of the following four treatments daily for 28 days while still maintained on HFD: (1) vehicle 1 (SC) and vehicle 2 (SC); (2) 0.2 mg/kg liraglutide (SC) and vehicle 2; (3) vehicle 1 (SC) and 10 mg/kg GIPA-2 (SC); and (4) 0.2 mg/kg liraglutide (SC) plus 10 mg/kg GIPA-2 (SC). […] Fasted (4 hrs) blood glucose and insulin were measured on study day -4, 10 and 26. […] Blood glucose was measured before their daily dosing and at 0, 15, 30 60, 120, 180 and 240 min after glucose administration. […] Blood glucose was measured before their daily dosing and at 0, 15, 30 60, 120, 180 min after glucose administration. […]
(§2) Fig 3 Effects of GIPA-1 and GIPA-2 on oral glucose tolerance and insulin responses in DIO mice. […] Statistical analysis was calculated using two-way ANOVA with Tukey’s post-hoc test and one-way ANOVA with Dunnett’s post-hoc test. *: p< 0.05, **: p < 0.01, ***: p < 0.001, ****: p<0.0001 compared to vehicle.

DIO mice [3] = assay: Chronic GIPA-2 study: insulin tolerance test (ITT) in DIO mice; conditions: day 24; insulin 0.5 U/kg ip one hour after daily dose; liraglutide 0.2 mg/kg SC, GIPA-2 10 mg/kg SC; n = 10
Procedure: as §1, §2

Substance: liraglutide
- body weight (DIO mice [1]): reduced both body weight and food intake
- cumulative food intake (DIO mice [1]): reduced both body weight and food intake
- glucose excursion in OGTT (DIO mice [2]): beneficial glucose lowering effects of liraglutide
- insulin sensitivity (ITT) (DIO mice [3]): improved insulin sensitivity produced by liraglutide
